# From the supplement of paper PMC4862054
# Assays:
# Conditions in all cases: incubation time: 72 h
# CAL-120 = assay: normalised viability (% of control), CellTiter-Blue; higher = more viable cells (about 100 = DMSO control)
# Experimental: (§1)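 DSRT, CellTiter-Blue viability, 72 h incubation. Signal is normalised to DMSO and benzethonium chloride controls. Value is the normalised response at dose 3.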
# DU-4475 [1] = assay: as above
# Experimental: as §1
# BT-474 = assay: as above
# Experimental: as §1
# SK-BR-3 [2] = assay: as above
# Experimental: as §1
# MFM-223 = assay: as above
# Experimental: as §1
# HDQ-P1 = assay: as above
# Experimental: as §1
# HCC1599 [3] = assay: as above
# Experimental: as §1
# MDA-MB-436 [4] = assay: as above
# Experimental: as §1
# Hs578T = assay: as above
# Experimental: as §1
# CAL-148 [5] = assay: as above
# Experimental: as §1
# BT-549 = assay: as above
# Experimental: as §1
# HCC1937 = assay: as above
# Experimental: as §1
# MDA-MB-231 = assay: as above
# Experimental: as §1
# CAL-85-1 [6] = assay: as above
# Experimental: as §1
# MDA-MB-453 = assay: as above
# Experimental: as §1
# CAL-51 [7] = assay: as above
# Experimental: as §1
# MDA-MB-468 [8] = assay: as above
# Experimental: as §1
# HCC1143 [9] = assay: as above
# Experimental: as §1
# DU-4475 [10] = assay: normalised viability (% of control), CellTiter-Blue; higher = more viable cells (about 100 = DMSO control); remark: listed apart in the source
# How it was run: (§2)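 Compound dissolved in 5 µl medium was pre-loaded into 384-well plates, and breast cancer cell lines in 20 µl suspension were seeded on top and incubated 72 h. After adding 2.5 µl CellTiter-Blue reagent for 2 h at 37 °C, fluorescence was read at 560/590 nm. Plates were normalised to vehicle (100) and a positive kill control (0), with Z'-factor quality control. Each value is normalised viability at a single listed concentration from the series.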
# CAL-148 [11] = assay: as above; remark: listed apart in the source
# How it was run: as §2
# CAL-85-1 [12] = assay: as above; remark: listed apart in the source
# How it was run: as §2
# CAL-51 [13] = assay: as above; remark: listed apart in the source
# How it was run: as §2
# SK-BR-3 [14] = assay: drug sensitivity score (DSS), CellTiter-Glo (DSS (AUC-based score)); higher = stronger drug effect (viability inhibition or cytotoxicity); extreme values may be limits of the assay
# How it was run: (§3)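 Breast cancer cell lines, seeded as 20 µl suspension, were incubated 72 h with compound in 384-well plates at 5 concentrations in 10-fold steps over a 10,000-fold range set for each compound. Fluorescence from CellTox Green was read at 485/520 nm before CellTiter-Glo luminescence, which was read after 10 min at room temperature. Every plate was normalised to 0.1 % DMSO and a positive kill control, and the drug sensitivity score was taken from the area under the fitted dose-response curve.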
# HCC1599 [15] = assay: as above
# How it was run: as §3
# MDA-MB-436 [16] = assay: as above
# How it was run: as §3
# CAL-148 [17] = assay: as above
# How it was run: as §3
# MCF-10A = assay: as above
# How it was run: as §3
# MDA-MB-468 [18] = assay: as above
# How it was run: as §3
# HCC1143 [19] = assay: as above
# How it was run: as §3
compound,measurement,setting,value
C=CC(=O)N1CCC[C@@H](n2nc(-c3ccc(Oc4ccccc4)cc3)c3c(N)ncnc32)C1,normalised viability,CAL-120; 10 nM,83.5%
same,normalised viability,DU-4475 [1]; 1 nM,92.8%
same,normalised viability,BT-474; 10 nM,84.3%
same,normalised viability,SK-BR-3 [2]; 10 nM,57.9%
same,normalised viability,MFM-223; 10 nM,91.1%
same,normalised viability,HDQ-P1; 1 nM,111%
same,normalised viability,HCC1599 [3]; 10 nM,85.6%
same,normalised viability,MDA-MB-436 [4]; 10 nM,88.2%
same,normalised viability,Hs578T; 10 nM,99.8%
same,normalised viability,CAL-148 [5]; 1 nM,99.5%
same,normalised viability,BT-549; 10 nM,97.9%
same,normalised viability,HCC1937; 10 nM,108%
same,normalised viability,MDA-MB-231; 10 nM,90.3%
same,normalised viability,CAL-85-1 [6]; 1 nM,96.2%
same,normalised viability,MDA-MB-453; 1 nM,94.4%
same,normalised viability,CAL-51 [7]; 1 nM,95%
same,normalised viability,MDA-MB-468 [8]; 10 nM,102%
same,normalised viability,HCC1143 [9]; 10 nM,79.6%
same,normalised viability,DU-4475 [10]; 30 nM,84.4%
same,normalised viability,CAL-148 [11]; 30 nM,44.8%
same,normalised viability,CAL-85-1 [12]; 30 nM,96%
same,normalised viability,CAL-51 [13]; 30 nM,92.2%
COc1cc2c(NC3CCN(C(C)C)CC3)nc(C3CCCCC3)nc2cc1OCCCN1CCCC1 [UNC0638],drug sensitivity score,SK-BR-3 [14],6.09
same,drug sensitivity score,HCC1599 [15],2.99
same,drug sensitivity score,MDA-MB-436 [16],6.5
same,drug sensitivity score,CAL-148 [17],5.21
same,drug sensitivity score,MCF-10A,7.1
same,drug sensitivity score,MDA-MB-468 [18],8.02
same,drug sensitivity score,HCC1143 [19],3.85
CC(=O)Nc1cccc(-n2c(=O)n(C3CC3)c(=O)c3c(Nc4ccc(I)cc4F)n(C)c(=O)c(C)c32)c1 [Trametinib],drug sensitivity score,SK-BR-3 [14],0
same,drug sensitivity score,HCC1599 [15],0
same,drug sensitivity score,MDA-MB-436 [16],0.966
same,drug sensitivity score,CAL-148 [17],0
same,drug sensitivity score,MCF-10A,20.3
same,drug sensitivity score,MDA-MB-468 [18],1.05
same,drug sensitivity score,HCC1143 [19],0
Nc1nc2[nH]cc(CCc3ccc(C(=O)N[C@@H](CCC(=O)O)C(=O)O)cc3)c2c(=O)[nH]1 [Pemetrexed],normalised viability,CAL-120; 100 nM,86%
same,normalised viability,DU-4475 [1]; 10 nM,104%
same,normalised viability,BT-474; 100 nM,125%
same,normalised viability,SK-BR-3 [2]; 100 nM,84%
same,normalised viability,MFM-223; 100 nM,91.6%
same,normalised viability,HDQ-P1; 10 nM,120%
same,normalised viability,HCC1599 [3]; 100 nM,88.9%
same,normalised viability,MDA-MB-436 [4]; 100 nM,97.2%
same,normalised viability,Hs578T; 100 nM,102%
same,normalised viability,CAL-148 [5]; 10 nM,101%
same,normalised viability,BT-549; 100 nM,87.8%
same,normalised viability,HCC1937; 100 nM,92.8%
same,normalised viability,MDA-MB-231; 100 nM,94.9%
same,normalised viability,CAL-85-1 [6]; 10 nM,99.8%
same,normalised viability,MDA-MB-453; 10 nM,118%
same,normalised viability,CAL-51 [7]; 10 nM,108%
same,normalised viability,MDA-MB-468 [8]; 100 nM,99%
same,normalised viability,HCC1143 [9]; 100 nM,91.6%
same,drug sensitivity score,SK-BR-3 [14],11
same,drug sensitivity score,HCC1599 [15],0
same,drug sensitivity score,MDA-MB-436 [16],5.36
same,drug sensitivity score,CAL-148 [17],0
same,drug sensitivity score,MCF-10A,0
same,drug sensitivity score,MDA-MB-468 [18],1.37
same,drug sensitivity score,HCC1143 [19],0
same,normalised viability,DU-4475 [10]; 300 nM,93.6%
same,normalised viability,CAL-148 [11]; 300 nM,106%
same,normalised viability,CAL-85-1 [12]; 300 nM,107%
same,normalised viability,CAL-51 [13]; 300 nM,110%
